# According to patent US12599611B2, “Methods and compositions for treating seizure disorders in pediatric patients” (Neurelis, Inc., priority 2021, dated 2026):
# System: beta frequency by EEG
# Assay: EEG monitoring of beta rhythm / beta frequency after diazepam administration
# Settings: after intranasal administration of 20 mg of diazepam via an intranasal composition
compound,measurement,value
"CN1C(=O)CN=C(c2ccccc2)c2cc(Cl)ccc21 [diazepam, 7-chloro-1,3-dihydro-1-methyl-5-phenyl-1,4-benzodiazepin-2-one]",time to changes in beta frequency (EEG),≤ 10 min
